The nature of data set [1]: AUC (infinity) in male Wistar rat at 7 mg/kg, po. Format: ADME, organism-based. Further details: time infinity, dose 7 mg/kg, route oral. The conditions noted are these: plasma.
A short description of data set [2]: Tmax in male Wistar rat at 7 mg/kg, po. Format: ADME, organism-based. Further details: dose 7 mg/kg, route oral. The settings on record: in vivo.
A short description of data set [3]: Ratio of drug level in brain to plasma in male Wistar rat. Format: ADME. The settings on record: read-out: BPR.
Data set [4] can be described thus: Cmax in male Wistar rat at 7 mg/kg, po. Format: ADME, organism-based. Further details: dose 7 mg/kg, route oral. The conditions noted are these: in vivo.
Data set [5] in a line: Ratio of drug level in CSF to plasma in male Wistar rat. Format: ADME.
Data set [6] can be described thus: Oral bioavailability in male Wistar rat at 7 mg/kg. Format: ADME, organism-based. The conditions noted are these: in vivo.
The nature of data set [7]: Volume of distribution at steady state in male Wistar rat at 2 mg/kg, iv. Further details: dose 2 mg/kg, route intravenous. Format: ADME, organism-based. The settings on record: in vivo, read-out: Vdss.
Another data set has as its system Rattus norvegicus. Briefly: (§1) Volume of distribution at steady state in male Wistar rat at 1 mg/kg, iv. Format: ADME, organism-based. Further details: dose 1 mg/kg, route intravenous. The conditions noted are these: in vivo.
Data set [8] is described as follows: Cmax in male Wistar rat at 10 mg/kg, po. The settings on record: in vivo. Further details: dose 10 mg/kg, route oral. Format: ADME, organism-based.
Data set [9] in a line: Oral bioavailability in male Wistar rat at 10 mg/kg. Format: ADME, organism-based. The conditions noted are these: in vivo.
Data set [10] is described as follows: Tmax in male Wistar rat at 10 mg/kg, po. Format: ADME, organism-based. More on the design: dose 10 mg/kg, route oral. The settings on record: in vivo.
Data set [11] in a line: AUC (infinity) in male Wistar rat at 10 mg/kg, po. Format: ADME, organism-based. The settings on record: plasma. More on the design: time infinity, dose 10 mg/kg, route oral.
Data set [12] can be described thus: as §1. Format: ADME, organism-based. More on the design: dose 1 mg/kg, route intravenous. The settings on record: male, Wistar, in vivo, read-out: Vdss.
Data set [13] concerns Plasma. Briefly: Plasma concentration in male Sprague-Dawley rat at 0.3 mg/ml, po. Format: ADME.
Data set [14] can be described thus: AUC (infinity) in fasted cynomolgus monkey at 0.3 mg/kg, po. Format: ADME, organism-based, Macaca fascicularis. Further details: time infinity, dose 0.3 mg/kg, route oral. The settings on record: plasma.
Data set [15] is described as follows: Oral bioavailability in fasted cynomolgus monkey at 0.3 mg/kg. Format: ADME, organism-based, Macaca fascicularis. The conditions noted are these: in vivo.
A short description of data set [16]: AUC (infinity) in fed cynomolgus monkey at 0.3 mg/kg, po. Format: ADME, organism-based, Macaca fascicularis. Further details: time infinity, dose 0.3 mg/kg, route oral. The settings on record: plasma.
A short description of data set [17]: Oral bioavailability in fed cynomolgus monkey at 0.3 mg/kg. Format: ADME, organism-based, Macaca fascicularis. The conditions noted are these: in vivo.
The nature of data set [18]: Volume of distribution at steady state cynomolgus monkey at 1 mg/kg, iv. Further details: dose 1 mg/kg, route intravenous. The settings on record: in vivo, read-out: Vdss. Format: ADME, organism-based, Macaca fascicularis.
Data set [19] can be described thus: Cmax in fasted cynomolgus monkey at 0.3 mg/kg, po. Format: ADME, organism-based, Macaca fascicularis. More on the design: dose 0.3 mg/kg, route oral. The conditions noted are these: in vivo.
Data set [20] can be described thus: Cmax in fed cynomolgus monkey at 0.3 mg/kg, po. Format: ADME, organism-based, Macaca fascicularis. More on the design: dose 0.3 mg/kg, route oral. The settings on record: in vivo.
The nature of data set [21]: Tmax in fed cynomolgus monkey at 03 mg/kg, po. Format: ADME, organism-based, Macaca fascicularis. More on the design: dose 3 mg/kg, route oral. The conditions noted are these: in vivo, 3 mg/kg.
The nature of data set [22]: Tmax in fasted cynomolgus monkey at 03 mg/kg, po. More on the design: dose 3 mg/kg, route oral. Format: ADME, organism-based, Macaca fascicularis. The conditions noted are these: in vivo, 3 mg/kg.
For data set [23], the system named is Plasma. Briefly: Plasma concentration in male Sprague-Dawley rat at 0.03 mg/ml, po. Format: ADME.

By AUC(0-inf) is commonly meant the area under the concentration-time curve extrapolated to infinity. In general, Tmax refers to the time from dosing to the highest level. For orientation: Cmax means the maximum level reached in the sampled fluid or tissue. In general, bioavailability refers to the share of a dose that reaches the circulation, judged against a reference dose that is usually intravenous. On to `Cc1cc(C#Cc2cn(-c3ccc(F)cc3)c(C)n2)ccn1`, for which the AUC(0-inf) in data set [1] amounted to 10500 ng·h/mL. Also, the time of peak concentration (Tmax) in data set [2] is 1.1 h. For the same compound, the Kp in data set [3] was 0.4; in data set [5], 0.02. Besides, the highest level in data set [4] (Cmax) was 1660 ng/mL. Moreover, the bioavailability in data set [6] was 84%. Also, the Vd in data set [7] was determined as 0.8 L/kg.
A word on the Vdss: it is a proportionality between amount in the body and measured concentration, not a real space. `C(#Cc1ncn2c1COc1ccccc1-2)c1ccccc1` came in with a volume of distribution (Vdss) with Rattus norvegicus of 2.9 L/kg. This compound also came in with an AUC(0-inf) in data set [1] of 661 ng·h/mL. Also, the Tmax in data set [2] was determined as 2.3 h. This compound also returned a Cmax in data set [4] of 158 ng/mL. In data set [6], this compound displayed a bioavailability of 18%.
`Cc1nc(C#Cc2ccnc(Cl)c2)c(C)n1-c1ccc(OC(F)(F)F)cc1`: the Kp in data set [3] came out at 2.6. The compound also displayed a Cmax in data set [8] of 619 ng/mL. In addition, in [9], the bioavailability stood at 98%. In addition, in data set [10], the Tmax stood at 5.5 h. Also, in data set [7], the Vd came to 11 L/kg. For the same compound, the area under the curve AUC(0-inf) in data set [11] amounted to 78900 ng·h/mL.
As to `Cc1nc(C#Cc2ccnc(Cl)c2)c(C)n1-c1ccc(F)cc1` [BASIMGLURANT], the values for the Vd in data set [12] and in data set [18] were 4 L/kg and 5.1 L/kg, respectively. In addition, the figures for the Cp with Plasma [13] and in the data set on Plasma [23] were 37 ng/mL and 5 ng/mL, respectively. The values for the AUC(0-inf) in [14], in [16] and in data set [11] were 852 ng·h/mL, 298 ng·h/mL and 25600 ng·h/mL, respectively. Besides, the bioavailability in data set [15] stood at 100%; in data set [17] it was 54%; in data set [9], 91%. The results for the peak concentration (Cmax) in [19], in [8] and in [20] were 76.5 ng/mL, 1580 ng/mL and 36.1 ng/mL, respectively. For the same compound, the Kp turned out to be 2.9 in data set [3] and 0.06 in data set [5]. In addition, the Tmax came out at 2 h in data set [21], 1 h in data set [22] and 6.2 h in [10].

The values above are taken from ChEMBL document CHEMBL3407448 (J Med Chem, 2015).
